According to patent US20240279278A1, “NMU RECEPTOR 2 AGONISTS” (Boehringer Ingelheim International GmbH, priority 2023, published 2024):
Residues, ends and D or L forms follow the SMILES beside them.

What was measured:
Format in all cases: cell-based
[1] = biological target: T1, human NMUR2 receptor (Homo sapiens, UniProt Q9GZQ4); assay: IP1 Gq HTRF assay, activation of human NMUR2 in human plasma; set-up: expressed in transfected cells; host or cells: CHO-K1; details: CHO-K1 cells expressing human NMUR2, 100% human plasma; read-out: EC50 (hNMUR2) human plasma
T1 sequence (Q9GZQ4 whole entry): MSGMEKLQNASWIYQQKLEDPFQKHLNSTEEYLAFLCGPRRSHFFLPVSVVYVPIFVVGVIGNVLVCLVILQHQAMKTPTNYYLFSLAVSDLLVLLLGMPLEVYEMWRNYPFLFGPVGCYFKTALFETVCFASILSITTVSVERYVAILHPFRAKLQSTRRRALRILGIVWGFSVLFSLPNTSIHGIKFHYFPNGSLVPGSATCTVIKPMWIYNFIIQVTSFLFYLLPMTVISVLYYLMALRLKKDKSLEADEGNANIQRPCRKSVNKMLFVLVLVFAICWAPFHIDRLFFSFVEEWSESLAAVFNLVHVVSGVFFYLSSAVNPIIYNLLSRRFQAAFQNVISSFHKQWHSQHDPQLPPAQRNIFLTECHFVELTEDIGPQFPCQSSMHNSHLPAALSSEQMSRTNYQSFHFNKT
In short: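 EC50 obtained via 4-parameter sigmoidal regression of HTRF IP-One signal (665 nm/620 nm), which falls as intracellular IP1 rises. Stimulation: 1 h, 37° C, peptides in human plasma plus 50 mM LiCl, 1% DMSO final, on NMUR2-expressing CHO-K1 cells, 8 concentrations.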

[2] = biological target: T1, human NMUR2 receptor; assay: IP1 Gq HTRF assay, activation of human NMUR2 in buffer; set-up: expressed in transfected cells; host or cells: CHO-K1; details: CHO-K1 cells expressing human NMUR2, stimulation buffer with 0.1% BSA; read-out: EC50 (hNMUR2) buffer
In short: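 IP-One HTRF competition (665/620 nm ratio) read after 1 h agonist exposure at 37 °C in pH 7.4 HEPES/HBSS stimulation buffer containing 50 mM LiCl, 0.1% BSA, 1% DMSO. Cells: CHO-K1 stably expressing human NMUR2 or NMUR1. EC50 by 4-parameter nonlinear regression of 8-point curves.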

[3] = biological target: T2, human NMUR1 receptor (Homo sapiens, UniProt Q9HB89); assay: IP1 Gq HTRF assay, activation of human NMUR1 in buffer; details: CHO-K1 cells expressing human NMUR1, stimulation buffer with 0.1% BSA; read-out: EC50 (hNMUR1) buffer
T2 construct: expressed in transfected cells; host or cells: CHO-K1
T2 sequence (Q9HB89 1-426): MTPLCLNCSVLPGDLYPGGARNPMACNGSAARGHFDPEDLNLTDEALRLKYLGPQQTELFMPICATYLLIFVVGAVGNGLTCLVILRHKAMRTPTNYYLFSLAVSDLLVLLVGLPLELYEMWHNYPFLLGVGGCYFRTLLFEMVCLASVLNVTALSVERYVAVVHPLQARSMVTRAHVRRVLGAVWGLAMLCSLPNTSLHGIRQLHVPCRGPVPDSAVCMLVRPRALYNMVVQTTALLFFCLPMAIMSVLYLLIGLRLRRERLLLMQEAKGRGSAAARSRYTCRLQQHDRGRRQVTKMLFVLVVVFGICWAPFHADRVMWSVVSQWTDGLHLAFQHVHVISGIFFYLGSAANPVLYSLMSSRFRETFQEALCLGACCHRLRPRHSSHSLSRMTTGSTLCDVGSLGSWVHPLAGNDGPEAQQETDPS
Excerpt: Example 3: IP1 Gq HTRF Assay Activation of Human NMUR2 or Human NMUR1 in Buffer Application of the Homogenous Time Resolved Fluorescence (HTRF) technology optimized for Gq coupled receptors has been described in detail in the Cisbio IP-One Gq kit manual. In brief, a FRET signal (FRET: fluorescence resonance energy transfer) is generated between the donor label of an IP-One antibody (anti-IP1-Tb) and the acceptor label of a tagged IP-One (IP1-d2). Agonism of a Gq coupled receptor increases intracellular IP-One, which competes with labeled IP-One and leads to a reduction of the FRET signal. Frozen stocks of CHO-K1 cells stably expressing the human NMUR1 or NMUR2 receptor were thawed and 5000 cells were seeded in culture medium (HAM'S F12, 10% FCS) into each well of a 384-well assay plate. After seeding, cells were incubated for 24 h in a humidified incubator at 37° C. and 5% CO2. Next, cells were washed once with 50 μL of wash buffer (20 mM Hepes, 1×HBSS, pH 7.4), followed by addition of either 10 μL of stimulation buffer (20 mM Hepes, 1×HBSS, 50 mM LiCl, 0.1% BSA, pH 7.4). Peptide agonists to be tested were dissolved in 100% DMSO and pre-diluted in stimulation buffer at a suitable concentration range for an 8 pt dose-response curve. 5 μL of peptide pre-dilution were then added to each well, followed by another 5 μL of stimulation buffer to give a final concentration of 1% DMSO. Samples were subsequently incubated for 1 hour in a humidified incubator at 37° C. After addition of 5 μL each of IP1-d2 and anti-IP1-Tb, samples were incubated for another 1 hour at room temperature and FRET signals (ratio 665 nm/620 nm) were measured. EC50 values were calculated by nonlinear regression using a 4-parameter sigmoidal curve fit.

SMILES | EC50 [1] | EC50 [2] | EC50 [3]
CCCC[C@H](NC(=O)[C@H](CC(C)C)N(C)C(=O)[C@H](Cc1ccccc1)NC(=O)[C@H](Cc1ccc(O)cc1)NC(=O)CN1CCN(CCNC(=O)CN(C)C(=O)CN(C)C(=O)CN(C)C(=O)CN(C)C(=O)CN(C)C(=O)CN(C)C(=O)CN(C)C(=O)CN(C)C(=O)CN(C)C(=O)CN(C)C(=O)CN(C)C(=O)CN(C)C(=O)CN(C)C(=O)CN(C)C(=O)CN(C)C(=O)CC[C@H](NC(=O)CC[C@H](NC(=O)CC[C@H](NC(=O)CCCCCCCCCCCCCCCCCCC(=O)O)C(=O)O)C(=O)O)C(=O)O)CC1)C(=O)N[C@@H](CCCN)C(=O)NCCC(=O)N[C@@H](CCCNC(=N)N)C(=O)NCC(N)=O [Compound 30, C20DA-gGlu3-Sar15-AEPipAc-Tyr-Phe-NMeLeu-Nle-Orn-bAla-Arg-Gly-NH2] (HELM PEPTIDE1{[O=C(O)CCCCCCCCCCCCCCCCCCC(=O)[*:2]].[gGlu].[gGlu].[gGlu].[Sar].[Sar].[Sar].[Sar].[Sar].[Sar].[Sar].[Sar].[Sar].[Sar].[Sar].[Sar].[Sar].[Sar].[Sar].[O=C(CN1CCN(CCN[*:1])CC1)[*:2]].Y.F.[meL].[Nle].[Orn].[bAla].R.G.[am]}$$$$V2.0) | 725 nM | 67 nM | > 1000 nM
CCCC[C@H](NC(=O)[C@H](CC(C)C)N(C)C(=O)[C@H](Cc1ccccc1)NC(=O)[C@H](Cc1ccc(O)cc1)NC(=O)CN1CCN(CCNC(=O)CN(C)C(=O)CN(C)C(=O)CN(C)C(=O)CN(C)C(=O)CN(C)C(=O)CN(C)C(=O)CN(C)C(=O)CN(C)C(=O)CN(C)C(=O)CN(C)C(=O)CN(C)C(=O)CN(C)C(=O)CC[C@H](NC(=O)CC[C@H](NC(=O)CC[C@H](NC(=O)CC[C@H](NC(=O)CCCCCCCCCCCCCCCCCCC(=O)O)C(=O)O)C(=O)O)C(=O)O)C(=O)O)CC1)C(=O)N[C@@H](CCN)C(=O)N(C)[C@@H](C)C(=O)N[C@@H](CCCNC(=N)N)C(=O)NCC(N)=O [Compound 31, C20DA-gGlu4-Sar12-AEPipAc-Tyr-Phe-NMeLeu-Nle-Dbu-NMeAla-Arg-Gly-NH2] | 14.6 nM | 3.7 nM | > 1000 nM
CCCC[C@H](NC(=O)[C@H](CC(C)C)N(C)C(=O)[C@H](Cc1ccccc1)NC(=O)[C@H](Cc1ccc(O)cc1)NC(=O)CN1CCN(CCNC(=O)CN(C)C(=O)CN(C)C(=O)CN(C)C(=O)CN(C)C(=O)CN(C)C(=O)CN(C)C(=O)CN(C)C(=O)CN(C)C(=O)CN(C)C(=O)CN(C)C(=O)CN(C)C(=O)CN(C)C(=O)CN(C)C(=O)CN(C)C(=O)CN(C)C(=O)CC[C@H](NC(=O)CC[C@H](NC(=O)CC[C@H](NC(=O)CCCCCCCCCCCCCCCCCCC(=O)O)C(=O)O)C(=O)O)C(=O)O)CC1)C(=O)N[C@@H](CCCN)C(=O)N(C)[C@@H](C)C(=O)N[C@@H](CCCNC(=N)N)C(=O)NCC(N)=O [Compound 34, C20DA-gGlu3-Sar15-AEPipAc-Tyr-Phe-NMeLeu-Nle-Orn-NMeAla-Arg-Gly-NH2] (HELM PEPTIDE1{[O=C(O)CCCCCCCCCCCCCCCCCCC(=O)[*:2]].[gGlu].[gGlu].[gGlu].[Sar].[Sar].[Sar].[Sar].[Sar].[Sar].[Sar].[Sar].[Sar].[Sar].[Sar].[Sar].[Sar].[Sar].[Sar].[O=C(CN1CCN(CCN[*:1])CC1)[*:2]].Y.F.[meL].[Nle].[Orn].[meA].R.G.[am]}$$$$V2.0) | 24.6 nM | 9 nM | > 1000 nM
CCCC[C@H](NC(=O)[C@H](CC(C)C)N(C)C(=O)[C@H](Cc1ccccc1)NC(=O)[C@H](Cc1ccc(O)cc1)NC(=O)CN1CCN(CCNC(=O)CN(C)C(=O)CN(C)C(=O)CN(C)C(=O)CN(C)C(=O)CN(C)C(=O)CN(C)C(=O)CN(C)C(=O)CN(C)C(=O)CN(C)C(=O)CN(C)C(=O)CN(C)C(=O)CN(C)C(=O)CN(C)C(=O)CN(C)C(=O)CN(C)C(=O)CC[C@H](NC(=O)CC[C@H](NC(=O)CC[C@H](NC(=O)CCCCCCCCCCCCCCCCCCC(=O)O)C(=O)O)C(=O)O)C(=O)O)CC1)C(=O)N(C)[C@@H](CCCNC(=N)N)C(=O)N(C)[C@@H](C)C(=O)N[C@@H](CCCNC(=N)N)C(=O)NCC(N)=O [Compound 36, C20DA-gGlu3-Sar15-AEPipAc-Tyr-Phe-NMeLeu-Nle-NMeArg-NMeAla-Arg-Gly-NH2] (HELM PEPTIDE1{[O=C(O)CCCCCCCCCCCCCCCCCCC(=O)[*:2]].[gGlu].[gGlu].[gGlu].[Sar].[Sar].[Sar].[Sar].[Sar].[Sar].[Sar].[Sar].[Sar].[Sar].[Sar].[Sar].[Sar].[Sar].[Sar].[O=C(CN1CCN(CCN[*:1])CC1)[*:2]].Y.F.[meL].[Nle].[meR].[meA].R.G.[am]}$$$$V2.0) | 18.3 nM | 4.7 nM | 1400 nM

Results, then the molecule that gave them:

EC50 [1] | EC50 [2] | EC50 [3] | SMILES
31.2 nM | 6.5 nM | 1200 nM | CCCC[C@H](NC(=O)[C@H](CC(C)C)N(C)C(=O)[C@H](Cc1ccccc1)NC(=O)[C@H](Cc1ccc(O)cc1)NC(=O)CN1CCN(CCNC(=O)CN(C)C(=O)CN(C)C(=O)CN(C)C(=O)CN(C)C(=O)CN(C)C(=O)CN(C)C(=O)CN(C)C(=O)CN(C)C(=O)CN(C)C(=O)CN(C)C(=O)CN(C)C(=O)CN(C)C(=O)CC[C@H](NC(=O)CC[C@H](NC(=O)CC[C@H](NC(=O)CC[C@H](NC(=O)CCCCCCCCCCCCCCCCCCC(=O)O)C(=O)O)C(=O)O)C(=O)O)C(=O)O)CC1)C(=O)N[C@@H](CCCCN)C(=O)N1CCC[C@H]1C(=O)N[C@@H](CCCNC(=N)N)C(=O)NCC(N)=O [Compound 32, C20DA-gGlu4-Sar12-AEPipAc-Tyr-Phe-NMeLeu-Nle-Lys-Pro-Arg-Gly-NH2]
9.4 nM | 1.5 nM | 190 nM | CCCC[C@H](NC(=O)[C@H](CC(C)C)N(C)C(=O)[C@H](Cc1ccccc1)NC(=O)[C@H](Cc1ccc(O)cc1)NC(=O)CN1CCN(CCNC(=O)CN(C)C(=O)CN(C)C(=O)CN(C)C(=O)CN(C)C(=O)CN(C)C(=O)CN(C)C(=O)CN(C)C(=O)CN(C)C(=O)CN(C)C(=O)CN(C)C(=O)CN(C)C(=O)CN(C)C(=O)CC[C@H](NC(=O)CC[C@H](NC(=O)CC[C@H](NC(=O)CCCCCCCCCCCCCCCCC(=O)O)C(=O)O)C(=O)O)C(=O)O)CC1)C(=O)N(C)[C@@H](CCCNC(=N)N)C(=O)N1CCC[C@H]1C(=O)N[C@@H](CCCNC(=N)N)C(=O)NCC(N)=O [Compound 35, C18DA-gGlu3-Sar12-AEPipAc-Tyr-Phe-NMeLeu-Nle-NMeArg-Pro-Arg-Gly-NH2]
27.1 nM | 3.5 nM | 1300 nM | CCCC[C@H](NC(=O)[C@H](CC(C)C)N(C)C(=O)[C@H](Cc1ccccc1)NC(=O)[C@H](Cc1ccc(O)cc1)NC(=O)CN1CCN(CCNC(=O)CN(C)C(=O)CN(C)C(=O)CN(C)C(=O)CN(C)C(=O)CN(C)C(=O)CN(C)C(=O)CN(C)C(=O)CN(C)C(=O)CN(C)C(=O)CN(C)C(=O)CN(C)C(=O)CN(C)C(=O)CC[C@H](NC(=O)CC[C@H](NC(=O)CC[C@H](NC(=O)CCCCCCCCCCCCCCCCC(=O)O)C(=O)O)C(=O)O)C(=O)O)CC1)C(=O)N(C)[C@@H](CCCNC(=N)N)C(=O)N(C)[C@@H](C)C(=O)N[C@@H](CCCNC(=N)N)C(=O)NCC(N)=O [Compound 37, C18DA-gGlu3-Sar12-AEPipAc-Tyr-Phe-NMeLeu-Nle-NMeArg-NMeAla-Arg-Gly-NH2]
